pIC50: −log10 of the molar value.
Experiments:
Malme-3M = assay: Cytotoxicity against human Malme-3M cells measured after 8 days; type: functional, cell-based; conditions: 192 h
HT-3 = assay: Cytotoxicity against human HT-3 cells measured after 8 days; type: functional, cell-based; conditions: HT-3, 192 h
BHY = assay: Cytotoxicity against human BHY cells measured after 8 days; type: functional, cell-based; conditions: 192 h
[1] = Cytotoxicity against human ECC-1 cells measured after 8 days; type: functional, cell-based; conditions: ECC-1, 192 h
[2] = Cytotoxicity against human COV504 cells measured after 8 days; type: functional, cell-based; conditions: COV504, 192 h
TK-10 = assay: Cytotoxicity against human TK-10 cells measured after 8 days; type: functional, cell-based; conditions: TK-10, 192 h
SK-CO-1 = assay: Cytotoxicity against human SK-CO-1 cells measured after 8 days; type: functional, cell-based; conditions: SK-CO-1, 192 h
[3] = Cytotoxicity against mouse KLN205 cells measured after 8 days; type: functional, cell-based; conditions: KLN205, 192 h
NUGC-3 = assay: Cytotoxicity against human NUGC-3 cells measured after 8 days; type: functional, cell-based; conditions: NUGC-3, 192 h
Jurkat = assay: Cytotoxicity against human Jurkat cells measured after 8 days; type: functional, cell-based; conditions: 192 h
U2OS = assay: Cytotoxicity against human U2OS cells measured after 8 days; type: functional, cell-based; conditions: 192 h
[4] = Cytotoxicity against human KMRC-20 cells measured after 8 days; type: functional, cell-based; conditions: KMRC-20, 192 h
SF-268 = assay: Cytotoxicity against human SF-268 cells measured after 8 days; type: functional, cell-based; conditions: SF-268, 192 h
SW626 = assay: Cytotoxicity against human SW626 cells measured after 8 days; type: functional, cell-based; conditions: SW626, 192 h
[5] = Cytotoxicity against human COV318 cells measured after 8 days; type: functional, cell-based; conditions: COV318, 192 h
[6] = Cytotoxicity against human KP-3 cells measured after 8 days; type: functional, cell-based; conditions: KP-3, 192 h
[7] = Cytotoxicity against human PK-45H cells measured after 8 days; type: functional, cell-based; conditions: 192 h
[8] = Cytotoxicity against human Panc 05.04 cells measured after 8 days; type: functional, cell-based; conditions: Panc 05.04, 192 h
[9] = Cytotoxicity against human OVISE cells measured after 8 days; type: functional, cell-based; conditions: 192 h
MOLM-13 = assay: Cytotoxicity against human MOLM-13 cells measured after 8 days; type: functional, cell-based; conditions: MOLM-13, 192 h
[10] = Cytotoxicity against human COLO 849 cells measured after 8 days; type: functional, cell-based; conditions: COLO 849, 192 h
[11] = Cytotoxicity against human 4498-14745 Mel-BR3 cells measured after 8 days; type: functional, cell-based; conditions: 4498-14745 Mel-BR3, 192 h
SUM149PT = assay: Cytotoxicity against human SUM149PT cells measured after 8 days; type: functional, cell-based; conditions: 192 h
[12] = Cytotoxicity against human SKG-II cells measured after 8 days; type: functional, cell-based; conditions: 192 h
KMS-12-BM = assay: Cytotoxicity against human KMS-12-BM cells measured after 8 days; type: functional, cell-based; conditions: 192 h
MKN-1 = assay: Cytotoxicity against human MKN-1 cells measured after 8 days; type: functional, cell-based; conditions: MKN-1, 192 h
NCI-H929 = assay: Cytotoxicity against human NCI-H929 cells measured after 8 days; type: functional, cell-based; conditions: NCI-H929, 192 h
A2058 = assay: Cytotoxicity against human A2058 cells measured after 8 days; type: functional, cell-based; conditions: A2058, 192 h
C3A = assay: Cytotoxicity against human C3A cells measured after 8 days; type: functional, cell-based; conditions: 192 h
RPMI-7951 = assay: Cytotoxicity against human RPMI-7951 cells measured after 8 days; type: functional, cell-based; conditions: RPMI-7951, 192 h
FTC-133 = assay: Cytotoxicity against human FTC-133 cells measured after 8 days; type: functional, cell-based; conditions: FTC-133, 192 h
[13] = Cytotoxicity against human SC1 cells measured after 8 days; type: functional, cell-based; conditions: SC-1, 192 h
NCI-H2171 = assay: Cytotoxicity against human NCI-H2171 cells measured after 8 days; type: functional, cell-based; conditions: NCI-H2171, 192 h
[14] = Cytotoxicity against human MS751 cells measured after 8 days; type: functional, cell-based; conditions: MS751, 192 h
[15] = Cytotoxicity against human Mel 928 cells measured after 8 days; type: functional, cell-based; conditions: Mel 928, 192 h
GB-1 = assay: Cytotoxicity against human GB-1 cells measured after 8 days; type: functional, cell-based; conditions: GB-1, 192 h
SK-N-FI = assay: Cytotoxicity against human SK-N-FI cells measured after 8 days; type: functional, cell-based; conditions: 192 h
[16] = Cytotoxicity against human NCI-H2135 cells measured after 8 days; type: functional, cell-based; conditions: NCI-H2135, 192 h
Homo sapiens = organism: Homo sapiens; assay: Inhibition of human N muscle type receptor at 10 uM relative to control
NALM-6 = assay: Cytotoxicity against human NALM-6 cells measured after 8 days; type: functional, cell-based; conditions: NALM-6, 192 h
OE33 = assay: Cytotoxicity against human OE33 cells measured after 8 days; type: functional, cell-based; conditions: OE33, 192 h
OVCAR-8 = assay: Cytotoxicity against human OVCAR-8 cells measured after 8 days; type: functional, cell-based; conditions: OVCAR-8, 192 h
COR-L47 = assay: Cytotoxicity against human COR-L47 cells measured after 8 days; type: functional, cell-based; conditions: COR-L47, 192 h
AM-38 = assay: Cytotoxicity against human AM-38 cells measured after 8 days; type: functional, cell-based; conditions: AM-38, 192 h
KYSE-450 = assay: Cytotoxicity against human KYSE-450 cells measured after 8 days; type: functional, cell-based; conditions: KYSE-450, 192 h
KYSE-30 = assay: Cytotoxicity against human KYSE-30 cells measured after 8 days; type: functional, cell-based; conditions: KYSE-30, 192 h
[17] = Cytotoxicity against human JJ012 cells measured after 8 days; type: functional, cell-based; conditions: JJ012, 192 h
PANC-03-27 = assay: Cytotoxicity against human Panc 03.27 cells measured after 8 days; type: functional, cell-based; conditions: PANC-03-27, 192 h
HEC-1B cell line = assay: Cytotoxicity against human HEC-1B cell line measured after 8 days; type: functional, cell-based; conditions: 192 h
[18] = Cytotoxicity against mouse 4T1-Luc cells measured after 8 days; type: functional, cell-based; conditions: 192 h
RT-4 = assay: Cytotoxicity against human RT-4 cells measured after 8 days; type: functional, cell-based; conditions: RT-4, 192 h
[19] = Cytotoxicity against human JHH7 cells measured after 8 days; type: functional, cell-based; conditions: JHH7, 192 h
COLO-679 = assay: Cytotoxicity against human COLO-679 cells measured after 8 days; type: functional, cell-based; conditions: COLO-679, 192 h
[20] = Cytotoxicity against human HCC15 cells measured after 8 days; type: functional, cell-based; conditions: HCC15, 192 h
[21] = Cytotoxicity against human Hs 852.T cells measured after 8 days; type: functional, cell-based; conditions: 192 h
SNU-638 = assay: Cytotoxicity against human SNU-638 cells measured after 8 days; type: functional, cell-based; conditions: SNU-638, 192 h
SNU-387 = assay: Cytotoxicity against human SNU-387 cells measured after 8 days; type: functional, cell-based; conditions: SNU-387, 192 h
[22] = Cytotoxicity against mouse 66cl-4 cells measured after 8 days; type: functional, cell-based; conditions: 66cl-4, 192 h
SiHa = assay: Cytotoxicity against human SiHa cells measured after 8 days; type: functional, cell-based; conditions: 192 h
[23] = Cytotoxicity against human HCC364 cells measured after 8 days; type: functional, cell-based; conditions: HCC364, 192 h
SK-MEL-2 = assay: Cytotoxicity against human SK-MEL-2 cells measured after 8 days; type: functional, cell-based; conditions: SK-MEL-2, 192 h
[24] = target: TGF-beta receptor type-1 (Homo sapiens) (UniProt P36897); assay: Inhibition of TGFBR1 (unknown origin) at 1 uM relative to control
Chain of TGF-beta receptor type-1 (Homo sapiens) (P36897 whole entry): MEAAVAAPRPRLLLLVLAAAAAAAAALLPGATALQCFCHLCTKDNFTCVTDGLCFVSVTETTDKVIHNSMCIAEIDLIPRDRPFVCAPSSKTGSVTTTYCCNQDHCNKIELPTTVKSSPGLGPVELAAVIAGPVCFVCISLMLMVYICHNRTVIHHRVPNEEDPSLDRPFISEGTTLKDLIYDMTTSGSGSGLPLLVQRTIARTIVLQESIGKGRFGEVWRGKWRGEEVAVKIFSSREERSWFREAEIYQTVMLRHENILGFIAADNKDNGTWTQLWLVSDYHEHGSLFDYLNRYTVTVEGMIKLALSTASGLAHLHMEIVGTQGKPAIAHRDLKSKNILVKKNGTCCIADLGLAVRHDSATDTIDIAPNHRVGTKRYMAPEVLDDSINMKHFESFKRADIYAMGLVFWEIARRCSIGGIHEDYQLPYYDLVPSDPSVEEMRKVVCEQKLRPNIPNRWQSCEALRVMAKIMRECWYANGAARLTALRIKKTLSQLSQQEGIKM

C/C=C/Cn1cc(-c2ccc(C(=O)N3CCOCC3)cc2)c2cc[nH]c2c1=O
pIC50 (Malme-3M): 4.70 | pIC50 (HT-3): 4.70 | pIC50 (BHY): 4.70 | pIC50 [1]: 4.70 | pIC50 [2]: 4.70 | pIC50 (TK-10): 4.70 | pIC50 (SK-CO-1): 4.70 | pIC50 [3]: 4.70 | pIC50 (NUGC-3): 4.70 | pIC50 (Jurkat): 4.70 | pIC50 (U2OS): 4.70 | pIC50 [4]: 4.70 | pIC50 (SF-268): 4.70 | pIC50 (SW626): 4.70 | pIC50 [5]: 4.70 | pIC50 [6]: 4.70 | pIC50 [7]: 4.70 | pIC50 [8]: 4.70 | pIC50 [9]: 4.70 | pIC50 (MOLM-13): 5.03 | pIC50 [10]: 4.70 | pIC50 [11]: 4.70 | pIC50 (SUM149PT): 4.70 | pIC50 [12]: 4.70 | pIC50 (KMS-12-BM): 4.86 | pIC50 (MKN-1): 4.70 | pIC50 (NCI-H929): 5.22 | pIC50 (A2058): 4.70 | pIC50 (C3A): 4.70 | pIC50 (RPMI-7951): 4.70 | pIC50 (FTC-133): 4.70 | pIC50 [13]: 4.70 | pIC50 (NCI-H2171): 4.70 | pIC50 [14]: 4.70 | pIC50 [15]: 4.70 | pIC50 (GB-1): 4.70 | pIC50 (SK-N-FI): 4.70 | pIC50 [16]: 4.70 | inhibition (Homo sapiens): -1% | pIC50 (NALM-6): 4.72 | pIC50 (OE33): 4.70 | pIC50 (OVCAR-8): 4.70 | pIC50 (COR-L47): 4.70 | pIC50 (AM-38): 4.70 | pIC50 (KYSE-450): 4.70 | pIC50 (KYSE-30): 4.70 | pIC50 [17]: 4.70 | pIC50 (PANC-03-27): 4.70 | pIC50 (HEC-1B cell line): 4.98 | pIC50 [18]: 4.70 | pIC50 (RT-4): 4.70 | pIC50 [19]: 4.70 | pIC50 (COLO-679): 4.70 | pIC50 [20]: 4.70 | pIC50 [21]: 4.70 | pIC50 (SNU-638): 4.70 | pIC50 (SNU-387): 4.70 | pIC50 [22]: 4.70 | pIC50 (SiHa): 4.70 | pIC50 [23]: 4.70 | pIC50 (SK-MEL-2): 4.70

C/C=C/Cn1cc(-c2cc(OC)c(C(=O)N3CCOCC3)cc2OC)c2cc(C)[nH]c2c1=O
inhibition [24]: -1.5%

C/C=C/Cn1cc(-c2ccc(C(C)(C)O)cc2OC)c2cc[nH]c2c1=O
pIC50 (Malme-3M): 4.70 | pIC50 (HT-3): 4.70 | pIC50 (BHY): 4.70 | pIC50 [1]: 4.70 | pIC50 [2]: 4.70 | pIC50 (TK-10): 4.70 | pIC50 (SK-CO-1): 4.70 | pIC50 [3]: 4.70 | pIC50 (NUGC-3): 4.70 | pIC50 (Jurkat): 4.83 | pIC50 (U2OS): 4.70 | pIC50 [4]: 4.70 | pIC50 (SF-268): 4.70 | pIC50 (SW626): 4.70 | pIC50 [5]: 4.70 | pIC50 [6]: 4.70 | pIC50 [7]: 4.70 | pIC50 [8]: 4.70 | pIC50 [9]: 4.70 | pIC50 (MOLM-13): 5.21 | pIC50 [10]: 4.70 | pIC50 [11]: 4.70 | pIC50 (SUM149PT): 4.70 | pIC50 [12]: 4.70 | pIC50 (KMS-12-BM): 4.70 | pIC50 (MKN-1): 4.70 | pIC50 (NCI-H929): 4.70 | pIC50 (A2058): 4.70 | pIC50 (C3A): 4.70 | pIC50 (RPMI-7951): 4.70 | pIC50 (FTC-133): 4.70 | pIC50 [13]: 4.75 | pIC50 (NCI-H2171): 4.70 | pIC50 [14]: 4.70 | inhibition [24]: 0% | pIC50 [15]: 4.70 | pIC50 (GB-1): 4.70 | pIC50 (SK-N-FI): 4.70 | pIC50 [16]: 4.70 | inhibition (Homo sapiens): -7% | pIC50 (NALM-6): 4.70 | pIC50 (OE33): 4.70 | pIC50 (OVCAR-8): 4.70 | pIC50 (COR-L47): 4.70 | pIC50 (AM-38): 4.70 | pIC50 (KYSE-450): 4.70 | pIC50 (KYSE-30): 4.70 | pIC50 [17]: 4.70 | pIC50 (PANC-03-27): 4.70 | pIC50 (HEC-1B cell line): 4.70 | pIC50 [18]: 4.70 | pIC50 (RT-4): 4.70 | pIC50 [19]: 4.75 | pIC50 (COLO-679): 4.70 | pIC50 [20]: 4.70 | pIC50 [21]: 4.70 | pIC50 (SNU-638): 4.70 | pIC50 (SNU-387): 4.70 | pIC50 [22]: 4.70 | pIC50 (SiHa): 4.70 | pIC50 [23]: 4.70 | pIC50 (SK-MEL-2): 4.70

Source: ChEMBL document CHEMBL5260810, “Inhibition of bromodomain-containing protein 9 for the prevention of epigenetically-defined drug resistance” (Bioorg Med Chem Lett, 2017)
